Assay results reported in patent US6992073B2, “Use of N-acetyl-D-glucosamine in the manufacture of a medicament for treating cervical erosion” (Third Military Medical University, Chinese People's …, priority 2002, dated 2006).

Legend:
Proteus Mirabilis = assay: Promoting wave test (bio-wave model on LB plate); format: cell-based
From the text: (§1) • 1. […] Experimental Results and Evaluation: • The experiment adopts a bio-wave model which is used to research the promoting wave function of the compound of formula (I). […] II. Toxicological Test of the Compound of Formula (I), including: • 1. acute toxicity test: including tests of administrating medicine by oral, Intravenous injection and maximum limit amount for administration; • 2. […] III. Test of Removing Pathogenic Microorganism by Resistance to Field Planting Action

Lactobacilli = assay: Liquid cultivation of Lactobacilli; format: cell-based
From the text: as §1

[1] = in vivo
From the text: as §1

[2] = test system: pathogenic microorganism such as Candida albicans, vagina Heamophilus; assay: Test of removing pathogenic microorganism by resistance to field planting action; format: cell-based; details: in situ bacterial field planting, qualitative and quantitative determination tests
cervix erosion = assay: Clinic test in patients with cervix erosion; format: in vivo, human beings; details: treating group 83 cases, positive medicament control group 60 cases
From the text: A spray formulation of 2% N-acetyl-D-glucosamine was applied to human beings, up to the end of August 1999, there were 123 cases of patients to be observed in total.

Row | Compound | promoting wave function (wave pattern of concentric rings) (Proteus Mirabilis) | growth of Lactobacilli (Lactobacilli) | acute test dosage relative to the injection dosage for human being [1] [times] | effect on field planting growth of pathogenic microorganism [2] | sterilizing or bacteria-inhibiting effect [2] | cured (number of cases) (cervix erosion) | effective (number of cases) (cervix erosion)
1 | CC(=O)N[C@@H]1[C@@H](O)[C@H](O)[C@@H](CO)O[C@H]1O [compound of formula (I), N-acetyl-D-glucosamine] | many fine waves on each ring emerged | can improve the growth of Lactobacilli | 300 | disabling pathogenic microorganism such as Candida albicans, vagina Heamophilus and etc. from field planting growth | substantially has no sterilizing or bacteria-inhibiting effect |  | 
2 | O=[N+]([O-])[O-].[Ag+] [AgNO3] |  |  |  |  |  | 5 | 8
